Source: US9388189B2, “Pyrrolotriazinone derivatives as PI3K inhibitors” (ALMIRALL, S.A., priority 2012, dated 2016)

These compounds were tested against PI3Kδ (PI3Kd) (Homo sapiens (Human), UniProt O00329) (assay: PI3K HTRF enzymatic inhibition assay (cell-free), delta isoform). Conditions: read-out: IC50 PI3Kd HTRF; recombinant PI3K delta, [ATP] 15 μM, [PIP2] 2 μM, 30 min preincubation.
PI3Kδ (PI3Kd), sequence (O00329 whole entry, canonical isoform): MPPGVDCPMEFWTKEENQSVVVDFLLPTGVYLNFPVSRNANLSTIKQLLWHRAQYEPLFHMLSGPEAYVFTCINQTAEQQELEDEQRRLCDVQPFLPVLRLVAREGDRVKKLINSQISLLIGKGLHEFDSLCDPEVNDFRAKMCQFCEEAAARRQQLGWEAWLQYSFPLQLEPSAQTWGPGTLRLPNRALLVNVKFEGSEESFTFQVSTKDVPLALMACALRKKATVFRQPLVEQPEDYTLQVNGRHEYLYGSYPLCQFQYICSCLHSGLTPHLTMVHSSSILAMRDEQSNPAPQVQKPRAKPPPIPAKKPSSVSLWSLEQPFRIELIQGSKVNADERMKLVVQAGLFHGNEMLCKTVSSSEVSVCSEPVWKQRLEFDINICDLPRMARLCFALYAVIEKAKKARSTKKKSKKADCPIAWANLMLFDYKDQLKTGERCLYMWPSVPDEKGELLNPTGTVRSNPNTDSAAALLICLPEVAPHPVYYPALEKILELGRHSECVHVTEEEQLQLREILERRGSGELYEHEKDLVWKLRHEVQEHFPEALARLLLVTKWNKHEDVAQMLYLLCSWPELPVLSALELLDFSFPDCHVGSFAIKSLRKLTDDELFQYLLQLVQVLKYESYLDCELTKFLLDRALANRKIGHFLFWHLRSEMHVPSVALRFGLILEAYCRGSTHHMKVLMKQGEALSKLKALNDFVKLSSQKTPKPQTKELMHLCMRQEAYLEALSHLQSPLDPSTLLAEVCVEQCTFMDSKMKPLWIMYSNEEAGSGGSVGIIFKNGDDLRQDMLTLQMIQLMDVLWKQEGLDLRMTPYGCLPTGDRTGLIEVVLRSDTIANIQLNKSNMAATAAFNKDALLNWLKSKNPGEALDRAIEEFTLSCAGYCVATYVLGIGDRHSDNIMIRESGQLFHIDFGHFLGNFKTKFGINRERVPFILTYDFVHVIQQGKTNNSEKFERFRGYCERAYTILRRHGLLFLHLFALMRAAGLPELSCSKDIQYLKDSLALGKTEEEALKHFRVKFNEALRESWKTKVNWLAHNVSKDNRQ
PI3Kδ (PI3Kd), sequence (P27986 whole entry partner, canonical isoform): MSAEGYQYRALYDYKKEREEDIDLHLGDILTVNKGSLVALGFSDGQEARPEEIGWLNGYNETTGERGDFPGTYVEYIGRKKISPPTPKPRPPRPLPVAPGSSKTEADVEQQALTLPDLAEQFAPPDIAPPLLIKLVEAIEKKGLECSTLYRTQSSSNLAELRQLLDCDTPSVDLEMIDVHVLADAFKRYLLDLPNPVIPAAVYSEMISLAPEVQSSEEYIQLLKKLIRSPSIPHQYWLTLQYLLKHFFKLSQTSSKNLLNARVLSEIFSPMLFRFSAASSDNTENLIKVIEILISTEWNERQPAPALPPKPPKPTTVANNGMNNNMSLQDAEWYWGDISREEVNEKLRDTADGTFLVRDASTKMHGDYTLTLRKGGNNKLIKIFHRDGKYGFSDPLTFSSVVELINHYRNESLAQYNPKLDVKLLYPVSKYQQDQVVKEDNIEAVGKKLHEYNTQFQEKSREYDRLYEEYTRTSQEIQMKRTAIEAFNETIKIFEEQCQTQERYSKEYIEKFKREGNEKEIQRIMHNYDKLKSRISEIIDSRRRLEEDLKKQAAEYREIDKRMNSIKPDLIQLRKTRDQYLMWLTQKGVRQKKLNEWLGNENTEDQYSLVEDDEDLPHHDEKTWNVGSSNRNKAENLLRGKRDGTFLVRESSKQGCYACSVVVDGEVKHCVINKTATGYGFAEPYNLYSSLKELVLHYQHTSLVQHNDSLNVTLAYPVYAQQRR

| SMILES | IC50 [nM] |
| --- | --- |
| C[C@H](Nc1ncnc(N)c1-c1nnn[nH]1)c1nn2cccc2c(=O)n1-c1ccccc1 [Example 1, (S)-2-(1-(6-Amino-5-(1H-tetrazol-5-yl)pyrimidin-4-ylamino)ethyl)-3-phenylpyrrolo[1,2-f][1,2,4]triazin-4(3H)-one] | 15 |
| Cc1ccn2nc([C@H](C)Nc3ncnc(N)c3-c3ccc4cc[nH]c4c3)n(-c3ccccc3)c(=O)c12 [Example 15, (S)-2-(1-((6-Amino-5-(1H-indol-6-yl)pyrimidin-4-yl)amino)ethyl)-5-methyl-3-phenylpyrrolo[2,1-f][1,2,4]triazin-4(3H)-one] | 3 |
| Cc1ccn2nc([C@H](C)Nc3ncnc(N)c3-c3cnc(N)nc3)n(-c3ccccc3)c(=O)c12 [Example 16, (S)-2-(1-((2′,6-Diamino-[5,5′-bipyrimidin]-4-yl)amino)ethyl)-5-methyl-3-phenylpyrrolo[2,1-f][1,2,4]triazin-4(3H)-one] | 5 |
| N#Cc1c(N)ncnc1N[C@@H](CCSCc1ccccc1)c1nn2cccc2c(=O)n1-c1ccccc1 [Example 19, (S)-4-Amino-6-((3-(benzylthio)-1-(4-oxo-3-phenyl-3,4-dihydropyrrolo[2,1-f][1,2,4]triazin-2-yl)propyl)amino)pyrimidine-5-carbonitrile] | 95 |
| COc1ncc(-c2c(N)ncnc2N[C@@H](C)c2nn3ccc(C)c3c(=O)n2-c2ccccc2)cc1NS(=O)(=O)c1ccc(F)cc1 [Example 22, (S)—N-(5-(4-Amino-6-((1-(5-methyl-4-oxo-3-phenyl-3,4-dihydropyrrolo[2,1-f][1,2,4]triazin-2-yl)ethyl)amino)pyrimidin-5-yl)-2-methoxypyridin-3-yl)-4-fluorobenzenesulfonamide] | 12 |
| N#Cc1ccn2nc([C@H](CCOCc3ccccc3)Nc3ncnc(N)c3-c3cc(O)cc(F)c3)n(-c3cc(F)cc(F)c3)c(=O)c12 [Example 24, (S)-2-(1-((6-Amino-5-(3-fluoro-5-hydroxyphenyl)pyrimidin-4-yl)amino)-3-(benzyloxy)propyl)-3-(3,5-difluorophenyl)-4-oxo-3,4-dihydropyrrolo[2,1-f][1,2,4]triazine-5-carbonitrile] | 97 |
| Cc1ccn2nc([C@H](C)Nc3ncnc(N)c3-c3cc(O)cc(C(F)(F)F)c3)n(-c3ccccc3)c(=O)c12 [Example 28, (S)-2-(1-((6-Amino-5-(3-hydroxy-5-(trifluoromethyl)phenyl)pyrimidin-4-yl)amino)ethyl)-5-methyl-3-phenylpyrrolo[2,1-f][1,2,4]triazin-4(3H)-one] | 5 |
| Cc1ccn2nc([C@H](C)Nc3ncncc3-c3cc(O)cc(F)c3)n(-c3ccccc3)c(=O)c12 [Example 35, (S)-2-(1-((5-(3-Fluoro-5-hydroxyphenyl)pyrimidin-4-yl)amino)ethyl)-5-methyl-3-phenylpyrrolo[2,1-f][1,2,4]triazin-4(3H)-one] | 4 |
| Cc1ccn2nc([C@H](C)Nc3ncnc4[nH]cc(C(=O)OCc5ccccc5)c34)n(-c3ccccc3)c(=O)c12 [Example 37, (S)-Benzyl 4-((1-(5-methyl-4-oxo-3-phenyl-3,4-dihydropyrrolo[2,1-f][1,2,4]triazin-2-yl)ethyl)amino)-7H-pyrrolo[2,3-d]pyrimidine-5-carboxylate] | 5 |
| Cc1ccn2nc([C@H](C)Nc3ncnc4[nH]cc(Cc5cccc(O)c5)c34)n(-c3ccccc3)c(=O)c12 [Example 43, (S)-2-(1-((5-(3-Hydroxybenzyl)-7H-pyrrolo[2,3-d]pyrimidin-4-yl)amino)ethyl)-5-methyl-3-phenylpyrrolo[2,1-f][1,2,4]triazin-4(3H)-one] | 3 |
| Cc1ccn2nc([C@H](C)Nc3ncnc4[nH]cc(-c5cccc6[nH]ncc56)c34)n(-c3ccccc3)c(=O)c12 [Example 52] | 1 |

More lines, now with the values ahead:

| IC50 [nM] | SMILES |
| --- | --- |
| 22 | C[C@H](Nc1ncnc(N)c1-c1nccs1)c1nn2cccc2c(=O)n1-c1ccccc1 [Example 2, (S)-2-(1-((6-Amino-5-(thiazol-2-yl)pyrimidin-4-yl)amino)ethyl)-3-phenylpyrrolo[2,1-f][1,2,4]triazin-4(3H)-one] |
| 40 | C[C@H](Nc1ncnc(N)c1-c1ccc(N)nc1)c1nn2cccc2c(=O)n1-c1ccccc1 [Example 3, (S)-2-(1-((6-Amino-5-(6-aminopyridin-3-yl)pyrimidin-4-yl)amino)ethyl)-3-phenylpyrrolo[2,1-f][1,2,4]triazin-4(3H)-one] |
| 17 | C[C@H](Nc1ncnc(N)c1-c1cnn(CCO)c1)c1nn2cccc2c(=O)n1-c1ccccc1 [Example 5, (S)-2-(1-((6-Amino-5-(1-(2-hydroxyethyl)-1H-pyrazol-4-yl)pyrimidin-4-yl)amino)ethyl)-3-phenylpyrrolo[2,1-f][1,2,4]triazin-4(3H)-one] |
| 11 | C[C@H](Nc1ncnc(N)c1-c1cc(O)cc(F)c1)c1nn2cccc2c(=O)n1-c1ccccc1 [Example 7, (S)-2-(1-((6-Amino-5-(3-fluoro-5-hydroxyphenyl)pyrimidin-4-yl)amino)ethyl)-3-phenylpyrrolo[2,1-f][1,2,4]triazin-4(3H)-one] |
| 6 | N#Cc1c(N)ncnc1N[C@@H](CCOCc1ccccc1)c1nn2ccc(C#N)c2c(=O)n1-c1cc(F)cc(F)c1 [Example 17, (S)-2-(1-((6-Amino-5-cyanopyrimidin-4-yl)amino)-3-(benzyloxy)propyl)-3-(3,5-difluorophenyl)-4-oxo-3,4-dihydropyrrolo[2,1-f][1,2,4]triazine-5-carbonitrile] |
| 1 | N#Cc1c(N)ncnc1N[C@@H](CCOc1ccccc1)c1nn2cccc2c(=O)n1-c1ccccc1 [Example 20, (S)-4-Amino-6-((1-(4-oxo-3-phenyl-3,4-dihydropyrrolo[2,1-f][1,2,4]triazin-2-yl)-3-phenoxypropyl)amino)pyrimidine-5-carbonitrile] |
| 1 | Cc1ccn2nc([C@H](C)Nc3ncnc4[nH]cc(-c5cc(O)cc(F)c5)c34)n(-c3ccccc3)c(=O)c12 [Example 27, (S)-2-(1-((5-(3-Fluoro-5-hydroxyphenyl)-7H-pyrrolo[2,3-d]pyrimidin-4-yl)amino)ethyl)-5-methyl-3-phenylpyrrolo[2,1-f][1,2,4]triazin-4(3H)-one] |
| 12 | C[C@H](Nc1ncnc(N)c1-c1cc(O)cc(F)c1)c1nn2ccc(Sc3ccccc3)c2c(=O)n1-c1ccccc1 [Example 34, (S)-2-(1-((6-Amino-5-(3-fluoro-5-hydroxyphenyl)pyrimidin-4-yl)amino)ethyl)-3-phenyl-5-(phenylthio)pyrrolo[2,1-f][1,2,4]triazin-4(3H)-one] |
| 30 | COc1cccc(Cc2ccn3nc([C@H](C)Nc4ncnc(N)c4C#N)n(-c4ccccc4)c(=O)c23)c1 [Example 40, (S)-4-Amino-6-((1-(5-(3-methoxybenzyl)-4-oxo-3-phenyl-3,4-dihydropyrrolo[2,1-f][1,2,4]triazin-2-yl)ethyl)amino)pyrimidine-5-carbonitrile] |
| 2 | COc1ncc(-c2c[nH]c3ncnc(N[C@@H](C)c4nn5ccc(C)c5c(=O)n4-c4ccccc4)c23)cc1NS(C)(=O)=O [Example 45, (S)—N-(2-Methoxy-5-(4-((1-(5-methyl-4-oxo-3-phenyl-3,4-dihydropyrrolo[2,1-f][1,2,4]triazin-2-yl)ethyl)amino)-7H-pyrrolo[2,3-d]pyrimidin-5-yl)pyridin-3-yl)methanesulfonamide] |
